Our source for the melting point values is patent US6444677B2, “5-membered heteroaryl substituted 1,4-dihydropyridine compounds as bradykinin antagonists” (Pfizer Inc., priority 1999, dated 2002).

What is called melting point is the temperature of the solid-liquid transition.

SMILES strings stand for the structures. Structures can show the parent of a compound that is named as a salt.

`COC(=O)C1=C(CCc2nccs2)NC(CC(=O)N2CCN(CCC(C)(C)N3CCCC3=O)CC2)=C(C(=O)OC)C1c1c(Cl)cccc1Cl` (stereo not drawn) (as salt: HCl) [Example 20, Dimethyl 4-(2,6-dichlorophenyl)-2-[2-[4-[3-methyl-3-(2-oxo-1-pyrrolidinyl)butyl]-1-piperazinyl]-2-oxoethyl]-6-[2-(1,3-thiazol-2-yl)ethyl]-1,4-dihydro-3,5-pyridinedicarboxylate]: the melting point was 179 °C (dec.).
For the compound `COC(=O)C1=C(CCc2nccs2)NC(CC(=O)N2CCN(CCC3(N4CCCC4=O)CCCC3)CC2)=C(C(=O)OC)C1c1c(Cl)cccc1Cl` (stereo not drawn) (as salt: HCl) [Example 33, Dimethyl 4-(2,6-dichlorophenyl)-2-[2-oxo-2-[4-[2-[1-(2-oxo-1-pyrrolidinyl)cyclopentyl]ethyl]-1-piperazinyl]ethyl]-6-[2-(1,3-thiazol-2-yl)ethyl]-1,4-dihydro-3,5-pyridinedicarboxylate], the melting point is 175 to 180 °C (dec.).
Next, `CCNCC1(CN2CCN(C(=O)CC3=C(C(=O)OC)C(c4c(Cl)cccc4Cl)C(C(=O)OC)=C(CCc4nccs4)N3)CC2)CCCCC1` (stereo not drawn) (as salt: HCl) [Example 3, Dimethyl 4-(2,6-dichlorophenyl)-2-[2-[4-[[1-[(ethylamino)methyl]cyclohexyl]methyl]-1-piperazinyl]-2-oxoethyl]-6-[2-(1,3-thiazol-2-yl)ethyl]-1,4-dihydro-3,5-pyridinedicarboxylate]: 206 to 210 °C (dec.); `COC(=O)C1=C(CCc2nccs2)NC(CC(=O)N2CCN(CC(C)(C)CNC(C)=O)CC2)=C(C(=O)OC)C1c1c(Cl)cccc1Cl` (stereo not drawn) [Example 16, Dimethyl 2-[2-[4-[3-(acetylamino)-2,2-dimethylpropyl]-1-piperazinyl]-2-oxoethyl]-4-(2,6-dichlorophenyl)-6-[2-(1,3-thiazol-2-yl)ethyl]-1,4-dihydro-3,5 pyridinedicarboxylate]: 104 to 107 °C; `COC(=O)C1=C(CCc2nccs2)NC(CC(=O)N2CCN(CC(C)(C)C#N)CC2)=C(C(=O)OC)C1c1c(Cl)cccc1Cl` (stereo not drawn) [Example 15, Dimethyl 2-[2-[4-(2-cyano-2-methylpropyl)-1-piperazinyl]-2-oxoethyl]-4-(2,6-dichlorophenyl)-6-[2-(1,3-thiazol-2-yl)ethyl]-1,4-dihydro-3,5-pyridinedicarboxylate]: 120 to 122 °C.
`COC(=O)C1=C(CCc2nccs2)NC(CC(=O)N2CCN(CC(C)(C)CNS(C)(=O)=O)CC2)=C(C(=O)OC)C1c1c(Cl)cccc1Cl` (stereo not drawn) [Example 13, Dimethyl 4-(2,6-dichlorophenyl)-2-[2-[4-[2,2-dimethyl-3-[(methylsulfonyl)amino]propyl]-1-piperazinyl]-2-oxoethyl]-6-[2-(1,3-thiazol-2-yl)ethyl]-1,4-dihydro-3,5-pyridinedicarboxylate] registered a melting point of 132 to 136 °C.
`COC(=O)C1=C(CCc2nccs2)NC(CC(=O)N2CCC(C3(CNC(C)=O)CCCCC3)CC2)=C(C(=O)OC)C1c1c(Cl)cccc1Cl` (stereo not drawn) [Example 44, Dimethyl 2-[2-[4-[1-[(acetylamino)methyl]cyclohexyl]-1-piperidinyl]-2-oxoethyl]-4-(2,6dichlorophenyl)-6-[2-(1,3-thiazol-2-yl)ethyl]-1,4dihydro-3,5-pyridinedicarboxylate]: the melting point is 114 to 116 °C (dec.).
Next, `COC(=O)C1=C(CCc2nccs2)NC(CC(=O)N2CCN(CC3(N)CCCCC3)CC2)=C(C(=O)OC)C1c1c(Cl)cccc1Cl` (stereo not drawn) (as salt: HCl) [Example 6, Dimethyl 2-[2-[4-[(1-aminocyclohexyl)methyl]-1-piperazinyl]-2-oxoethyl]4-(2,6-dichlorophenyl)-6-[2-(1,3-thiazol-2-yl)ethyl]-1,4-dihydro-3,5-pyridinedicarboxylate]: 210 to 220 °C (dec.).
For the compound `CCNCC1(C2CCN(C(=O)CC3=C(C(=O)OC)C(c4c(Cl)cccc4Cl)C(C(=O)OC)=C(CCc4nccs4)N3)CC2)CCCCC1` (stereo not drawn) (as salt: HCl) [Example 45, Dimethyl 4-(2,6-dichlorophenyl)-2-[2-[4-[1-[(ethylamino)methyl]cyclohexyl]-1-piperidinyl]-2-oxoethyl]-6-[2-(1,3-thiazol-2-yl)ethyl]-1,4-dihydro-3,5-pyridinedicarboxylate], the melting point is 162 to 163 °C (dec.).
Take `COC(=O)C1=C(CCc2nccs2)NC(CC(=O)N2CCN(CC3(CN)CCCCC3)CC2)=C(C(=O)OC)C1c1c(Cl)cccc1Cl` (stereo not drawn) (as salt: HCl) [Example 2, Dimethyl 2-[2-[4-[[1-(aminomethyl)cyclohexyl]methyl]-1-piperazinyl]-2-oxoethyl]-4-(2,6-dichlorophenyl)-6-[2-(1,3-thiazol-2-yl)ethyl]-1,4-dihydro-3,5-pyridinedicarboxylate]: the melting point is 206 to 210 °C (dec.).
On to `COC(=O)C1=C(CCc2nccs2)NC(CC(=O)N2CCN(CC3(C#N)CCCCC3)CC2)=C(C(=O)OC)C1c1c(Cl)cccc1Cl` (stereo not drawn) (as salt: HCl) [Example 1, Dimethyl 2-[2-[4-[(1-cyanocyclohexyl)methyl]-1-piperazinyl]-2-oxoethyl]-4-(2,6-dichlorophenyl)-6-[2-(1,3-thiazol-2-yl)ethyl]-1,4-dihydro-3,5-pyridinedicarboxylate], for which the melting point is 211 to 213 °C (dec.).
Next, `CCC(CC)(CCN1CCN(C(=O)CC2=C(C(=O)OC)C(c3c(Cl)cccc3Cl)C(C(=O)OC)=C(CCc3nccs3)N2)CC1)N1CCCC1=O` (stereo not drawn) (as salt: HCl) [Example 39, Dimethyl 4-(2,6-dichlorophenyl)-2-[2-[4-[3-ethyl-3-(2-oxo-1-pyrrolidinyl)pentyl]-1-piperazinyl]-2-oxoethyl]-6-[2-(1,3-thiazol-2-yl)ethyl]-1,4-dihydro-3,5-pyridinedicarboxylate]: 151 to 155 °C (dec.); `COC(=O)C1=C(CCc2nccs2)NC(CC(=O)N2CCN(CC3(CN)CCCC3)CC2)=C(C(=O)OC)C1c1c(Cl)cccc1Cl` (stereo not drawn) [Example 17, Dimethyl 2-[2-[4-[[1-(aminomethyl)cyclopentyl]methyl]-1-piperazinyl]-2-oxoethyl]-4-(2,6-dichlorophenyl)-6-[2-(1,3-thiazol-2-yl)ethyl]-1,4-dihydro-3,5-pyridinedicarboxylate]: 161 to 164 °C.
As to `COC(=O)C1=C(CCc2nccs2)NC(CC(=O)N2CCN(CCC3(C(N)=O)CCCC3)CC2)=C(C(=O)OC)C1c1c(Cl)cccc1Cl` (stereo not drawn) (as salt: HCl) [Example 43, Dimethyl 2-[2-[4-[2-[1-(aminocarbonyl)cyclopentyl]ethyl]-1-piperazinyl]-2-oxoethyl]-4-(2,6-dichlorophenyl)-6-[2-(1,3-thiazol-2-yl)ethyl]-1,4-dihydro-3,5-pyridinedicarboxylate], the melting point was 158 to 163 °C (dec.).
As to `COC(=O)C1=C(CCc2nccs2)NC(CC(=O)N2CCN(CCC3(O)CCCCC3)CC2)=C(C(=O)OC)C1c1c(Cl)cccc1Cl` (stereo not drawn) (as salt: HCl) [Example 28, Dimethyl 4-(2,6-dichlorophenyl)-2-[2-[4-[2-(1-hydroxycyclohexyl)ethyl]-1-piperazinyl]-2-oxoethyl]-6-[2-(1,3-thiazol-2-yl)ethyl]-1,4-dihydro-3,5-pyridinedicarboxylate], the melting point was 188 to 190 °C (dec.).
For the compound `CCN(CC)C1(CCN2CCN(C(=O)CC3=C(C(=O)OC)C(c4c(Cl)cccc4Cl)C(C(=O)OC)=C(CCc4nccs4)N3)CC2)CCCC1` (stereo not drawn) (as salt: HCl) [Example 34, Dimethyl 4-(2,6-dichlorophenyl)2-[2-[4-[2-[1-(diethylamino)cyclopentyl]ethyl]-1-piperazinyl]-2-oxoethyl]-6-[2-(1,3-thiazol-2-yl)ethyl]-1,4-dihydro-3,5-pyridinedicarboxylate], the melting point was 195 to 200 °C (dec.).
Next, `COC(=O)C1=C(CCc2nccs2)NC(CC(=O)N2CCN(CC3(CNC4CCCC4)CCCC3)CC2)=C(C(=O)OC)C1c1c(Cl)cccc1Cl` (stereo not drawn) (as salt: HCl) [Example 11, Dimethyl 2-[2-[4-[[1-[(cyclopentylamino)methyl]cyclopentyl]methyl]-1-piperazinyl]-2-oxoethyl]-4-(2,6dichlorophenyl)-6-[2-(1,3-thiazol-2-yl)ethyl]-1,4-dihydro-3,5-pyridinedicarboxylate]: 174 to 177 °C (dec.); `CCN(CC)C1C2CCC1CC(N1CCN(C(=O)CC3=C(C(=O)OC)C(c4c(Cl)cccc4Cl)C(C(=O)OC)=C(CCc4nccs4)N3)CC1)C2` (stereo not drawn) (as salt: HCl) [Example 12, Dimethyl 4-(2,6-dichlorophenyl)-2-[2-[4-(8-(diethylamino)bicyclo [3.2.1]oct-3-yl)-1-piperazinyl]-2-oxoethyl]-6-[2-(1,3-thiazol-2-yl)ethyl]-1,4-dihydro-3,5-pyridinedicarboxylate]: 200 to 205 °C (dec.).
Next, `COC(=O)C1=C(CCc2nccs2)NC(CC(=O)N2CCN(CCCN3CCC(C)C3=O)CC2)=C(C(=O)OC)C1c1c(Cl)cccc1Cl` (stereo not drawn) [Example 30, Dimethyl 4-(2,6-dichlorophenyl)-2-[2-[4-[3-(3-methyl-2-oxo-1-pyrrolidinyl)propyl]-1-piperazinyl]-2-oxoethyl]-6-[2-(1,3-thiazol-2-yl)ethyl]-1,4-dihydro-3,5pyridinedicarboxylate]: 175 to 178 °C (dec.); `COC(=O)C1=C(CCc2nccs2)NC(CC(=O)N2CCN(CC(C)(C)CN)CC2)=C(C(=O)OC)C1c1c(Cl)cccc1Cl` (stereo not drawn) [Example 18, Dimethyl 2-[2-[4-(3-amino-2,2-dimethylpropyl)-1-piperazinyl]-2-oxoethyl]-4-(2,6-dichlorophenyl)-6-[2-(1,3-thiazol-2-yl)ethyl]-1,4-dihydro-3,5-pyridinedicarboxylate]: 158 to 162 °C.
Next, `COC(=O)C1=C(CCc2nccs2)NC(CC(=O)N2CCN(CCCN3CCCC3=O)CC2)=C(C(=O)OC)C1c1c(Cl)cccc1Cl` (stereo not drawn) (as salt: HCl) [Example 22, Dimethyl 4-(2,6-dichlorophenyl)-2-[2-oxo-2-[4-[3-(2-oxo-1-pyrrolidinyl)propyl]-1-piperazinyl]ethyl]-6-[2-(1,3-thiazol-2-yl)ethyl]-1,4-dihydro-3,5-pyridinedicarboxylate]: 185 to 190 °C (dec.).
